≈ marks a conversion by molar mass, not a printed value.

Common to all, as to assay type: functional
The subject of assay [1] is Saccharomyces cerevisiae. As to the kind of experiment: Antimicrobial activity against Saccharomyces cerevisiae.
Assay [2] concerns Botrytis cinerea. As to the kind of experiment: Antifungal activity against Botrytis cinerea.
Assay [3] has as its system Phytophthora capsici. Put plainly: Antioomycete activity against Phytophthora capsici by microtiter broth dilution assay. Background: Broth dilution looks for growth in wells or tubes with falling amounts of substance.

The MIC is the smallest concentration in the dilution series that meets the test's criterion for growth inhibition. Take `Clc1ccc(COC(Cn2ccnc2)c2ccc(Cl)cc2Cl)c(Cl)c1` (stereo not drawn) [MICONAZOLE]: the MIC in assay [1] is 5 µg/mL (≈ 12 µM); in assay [2], 10 µg/mL (≈ 24 µM).

On to NYSTATIN, for which the MIC is 7 µg/mL in assay [1] and 3 µg/mL in assay [2].

As for `CSC(CC(=O)c1ccccc1N)C(=O)O` (stereo not drawn) [THIOBUTACIN], the MIC turned out to be 30 µg/mL (≈ 125 µM) in assay [1], 10 µg/mL (≈ 41.8 µM) in assay [3] and 50 µg/mL (≈ 209 µM) in assay [2].

Consider `COCC(=O)N(c1c(C)cccc1C)C(C)C(=O)OC` (stereo not drawn) [METALAXYL], for which the lowest concentration to inhibit growth in assay [3] (MIC) was 30 µg/mL (≈ 107 µM).
